In patent publication US8686115B2, “Compositions and methods for quantitatively monitoring lipids” (The Board of Trustees of the University of Illinois, priority 2009, dated 2014):

Target: T1, DAN-eENTH: epsin 1 ENTH domain variant M10C/C96A/S4W, SEQ ID NO: 2, labeled with DAN at C10 (Homo sapiens, UniProt Q9Y6I3, C96A/M10C/S4W)
T1 construct: The Epsin1 ENTH domain (1-158 amino acids) was subcloned; GST (C, cleaved yes); made in house; host or cells: E. coli BL21 RIL codon plus
T1 sequence (Q9Y6I3 1-158 S4W/M10C/C96A): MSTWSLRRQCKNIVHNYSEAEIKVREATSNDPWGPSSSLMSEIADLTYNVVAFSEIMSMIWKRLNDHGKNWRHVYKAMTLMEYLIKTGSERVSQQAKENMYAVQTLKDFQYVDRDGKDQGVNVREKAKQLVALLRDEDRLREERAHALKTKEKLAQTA
Assay: Ratiometric (FB/FG) two-photon microscopy of DAN-eENTH binding to PtdIns(4,5)P2 in GUVs
Conditions: FB/FG versus [PtdIns(4,5)P2]; POPC/POPS/PtdIns(4,5)P2 (80-x:20:x) GUVs; 37° C.; read-out: Kd for PtdIns(4,5)P2 (FB/FG ratiometric analysis)
Method: The background correction for FB/FG values was unnecessary because FB=0 in the absence of PtdIns(4,5)P2. […] The theoretic curve was then constructed using these parameters.
To calibrate the fluorescence microscope and the DAN-eENTH sensor for cellular PtdIns(4,5)P2 quantification, we then determined by photon counting F values in the blue channel (FB; observed with a 436±10 band pass filter) and the green channel (FG; observed with a 525±25 band pass filter) when DAN-eENTH was added to the solution of giant unilamellar vesicles (GUV) with the composition of POPC/POPS/PtdIns(4,5)P2 (80-x:20:x with x=0-3). […] The resulting FB versus the surface concentration of PtdIns(4,5)P2 ([PtdIns(4,5)P2]s; see Methods for calculation) (FIG. 2C) or (FB/FG) versus [PtdIns(4,5)P2]s (FIG. 2d) calibration curve was used for ensuing PtdIns(4,5)P2 quantification in GUV and in mammalian cells. With respect to FIG. 5, the bar indicates 10 μm and the radius of this GUV is measured as […]. […]
In vitro calibration of our DAN-eENTH sensor was performed using GUVs composed of POPC/POPS/PtdIns(4,5)P2 (80-x:20:x) (x=0-3 mol %). […] These GUV were mixed with DAN-eENTH in the concentration range of 0-500 nM and spatiotemporally resolved fluorescence measurements were carried out at 37° C. using the custom-built multi-photon, multi-channel microscope that was described previously 13. […]

`CCCCCCCCCCCCCCCC(=O)OC[C@H](COP(=O)(O)O[C@@H]1[C@H](O)[C@H](O)[C@@H](OP(=O)(O)O)[C@H](OP(=O)(O)O)[C@H]1O)OC(=O)CCCCCCCCCCCCCCC` [PtdIns(4,5)P2, phosphatidylinositol-4,5-bisphosphate] gave a Kd of 44 ± 6 nM.
